Measured values as given in article PMC4774911, “Biochemical Screening of Five Protein Kinases from Plasmodium falciparum against 14,000 Cell-Active Compounds” (PLoS ONE, 2016).
Where “and” joins values, the source holds several entries; their conditions need not be identical. Equal values may be shown once.

Tests used:
Experiment in all cases: biochemical
BMPR2 = biological target: T1, BMPR2 (Homo sapiens, UniProt Q13873)
T1 sequence (Q13873 1-1038): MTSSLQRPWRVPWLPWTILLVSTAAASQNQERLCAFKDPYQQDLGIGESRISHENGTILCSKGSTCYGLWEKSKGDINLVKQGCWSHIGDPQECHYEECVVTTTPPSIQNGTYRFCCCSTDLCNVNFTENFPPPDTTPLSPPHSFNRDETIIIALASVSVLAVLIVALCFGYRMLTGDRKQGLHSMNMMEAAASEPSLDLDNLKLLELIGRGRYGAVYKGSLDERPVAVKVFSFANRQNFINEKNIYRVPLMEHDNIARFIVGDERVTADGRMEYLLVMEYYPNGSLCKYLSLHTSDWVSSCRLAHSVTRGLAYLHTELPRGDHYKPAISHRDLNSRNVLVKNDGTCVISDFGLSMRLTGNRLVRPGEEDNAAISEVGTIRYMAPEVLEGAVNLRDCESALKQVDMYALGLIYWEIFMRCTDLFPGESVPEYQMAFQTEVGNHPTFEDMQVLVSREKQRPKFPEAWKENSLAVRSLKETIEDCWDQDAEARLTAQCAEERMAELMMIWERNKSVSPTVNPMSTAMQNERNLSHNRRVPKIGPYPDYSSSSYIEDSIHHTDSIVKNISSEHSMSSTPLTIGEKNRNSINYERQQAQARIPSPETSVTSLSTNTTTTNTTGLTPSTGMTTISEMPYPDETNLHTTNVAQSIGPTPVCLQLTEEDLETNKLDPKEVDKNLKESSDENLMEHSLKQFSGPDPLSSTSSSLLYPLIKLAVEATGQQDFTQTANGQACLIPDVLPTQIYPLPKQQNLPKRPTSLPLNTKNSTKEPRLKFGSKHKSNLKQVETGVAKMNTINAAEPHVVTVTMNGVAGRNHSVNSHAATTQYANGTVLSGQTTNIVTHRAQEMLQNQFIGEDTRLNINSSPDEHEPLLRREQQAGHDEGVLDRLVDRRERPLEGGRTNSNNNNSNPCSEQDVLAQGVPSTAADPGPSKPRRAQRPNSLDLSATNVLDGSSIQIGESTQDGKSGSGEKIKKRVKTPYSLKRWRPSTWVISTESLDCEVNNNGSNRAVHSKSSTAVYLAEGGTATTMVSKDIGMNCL

CHEK1 = biological target: T2, CHEK1 (Homo sapiens, UniProt O14757)
T2 sequence (O14757 1-476): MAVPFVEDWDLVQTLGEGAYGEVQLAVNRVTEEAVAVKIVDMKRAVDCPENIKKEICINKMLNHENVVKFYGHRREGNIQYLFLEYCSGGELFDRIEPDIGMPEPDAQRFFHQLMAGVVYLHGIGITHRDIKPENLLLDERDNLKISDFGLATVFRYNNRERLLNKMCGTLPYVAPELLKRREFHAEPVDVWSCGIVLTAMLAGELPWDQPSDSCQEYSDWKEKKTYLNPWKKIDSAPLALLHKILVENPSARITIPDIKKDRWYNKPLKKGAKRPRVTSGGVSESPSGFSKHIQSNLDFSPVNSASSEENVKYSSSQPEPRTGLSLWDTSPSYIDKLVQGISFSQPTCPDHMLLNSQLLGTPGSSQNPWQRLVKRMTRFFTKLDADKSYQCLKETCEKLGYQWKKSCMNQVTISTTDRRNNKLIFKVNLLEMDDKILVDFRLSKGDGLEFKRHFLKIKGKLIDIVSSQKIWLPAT

IRAK1 = IRAK1 (Homo sapiens, UniProt P51617)
JAK2 = JAK2 (Homo sapiens, UniProt O60674)
MAPK7 = MAPK7 (Homo sapiens, UniProt Q13164)
NEK6 = NEK6 (Homo sapiens, UniProt Q9HC98)
MAP4K4 = MAP4K4 (Homo sapiens, UniProt O95819)
STK3 = STK3 (Homo sapiens, UniProt Q13188)
TAOK3 = biological target: T3, TAOK3 (Homo sapiens, UniProt Q9H2K8)
T3 sequence (Q9H2K8 1-898): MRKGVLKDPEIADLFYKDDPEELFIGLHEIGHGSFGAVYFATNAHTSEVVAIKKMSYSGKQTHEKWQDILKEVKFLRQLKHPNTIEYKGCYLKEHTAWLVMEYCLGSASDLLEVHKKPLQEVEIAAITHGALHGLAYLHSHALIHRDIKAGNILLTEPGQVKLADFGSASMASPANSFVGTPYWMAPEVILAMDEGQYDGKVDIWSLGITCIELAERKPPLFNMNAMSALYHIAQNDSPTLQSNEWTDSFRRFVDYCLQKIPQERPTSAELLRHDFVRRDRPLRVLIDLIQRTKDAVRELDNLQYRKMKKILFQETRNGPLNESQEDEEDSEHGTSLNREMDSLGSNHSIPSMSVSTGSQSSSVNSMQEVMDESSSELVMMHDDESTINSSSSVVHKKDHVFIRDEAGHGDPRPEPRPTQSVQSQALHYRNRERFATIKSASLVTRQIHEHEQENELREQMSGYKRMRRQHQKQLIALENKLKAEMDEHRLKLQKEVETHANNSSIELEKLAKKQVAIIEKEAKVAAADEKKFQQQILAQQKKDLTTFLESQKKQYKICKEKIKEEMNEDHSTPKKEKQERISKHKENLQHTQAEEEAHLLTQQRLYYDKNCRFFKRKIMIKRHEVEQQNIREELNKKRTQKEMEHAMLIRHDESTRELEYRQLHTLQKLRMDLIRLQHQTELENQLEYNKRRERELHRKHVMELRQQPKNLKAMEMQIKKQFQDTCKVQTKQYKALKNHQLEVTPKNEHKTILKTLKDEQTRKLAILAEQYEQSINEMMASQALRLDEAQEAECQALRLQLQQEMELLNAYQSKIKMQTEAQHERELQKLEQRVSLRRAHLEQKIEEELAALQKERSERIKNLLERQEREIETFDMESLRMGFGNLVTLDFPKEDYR

Chain of MAP4K4 (O95819 whole entry): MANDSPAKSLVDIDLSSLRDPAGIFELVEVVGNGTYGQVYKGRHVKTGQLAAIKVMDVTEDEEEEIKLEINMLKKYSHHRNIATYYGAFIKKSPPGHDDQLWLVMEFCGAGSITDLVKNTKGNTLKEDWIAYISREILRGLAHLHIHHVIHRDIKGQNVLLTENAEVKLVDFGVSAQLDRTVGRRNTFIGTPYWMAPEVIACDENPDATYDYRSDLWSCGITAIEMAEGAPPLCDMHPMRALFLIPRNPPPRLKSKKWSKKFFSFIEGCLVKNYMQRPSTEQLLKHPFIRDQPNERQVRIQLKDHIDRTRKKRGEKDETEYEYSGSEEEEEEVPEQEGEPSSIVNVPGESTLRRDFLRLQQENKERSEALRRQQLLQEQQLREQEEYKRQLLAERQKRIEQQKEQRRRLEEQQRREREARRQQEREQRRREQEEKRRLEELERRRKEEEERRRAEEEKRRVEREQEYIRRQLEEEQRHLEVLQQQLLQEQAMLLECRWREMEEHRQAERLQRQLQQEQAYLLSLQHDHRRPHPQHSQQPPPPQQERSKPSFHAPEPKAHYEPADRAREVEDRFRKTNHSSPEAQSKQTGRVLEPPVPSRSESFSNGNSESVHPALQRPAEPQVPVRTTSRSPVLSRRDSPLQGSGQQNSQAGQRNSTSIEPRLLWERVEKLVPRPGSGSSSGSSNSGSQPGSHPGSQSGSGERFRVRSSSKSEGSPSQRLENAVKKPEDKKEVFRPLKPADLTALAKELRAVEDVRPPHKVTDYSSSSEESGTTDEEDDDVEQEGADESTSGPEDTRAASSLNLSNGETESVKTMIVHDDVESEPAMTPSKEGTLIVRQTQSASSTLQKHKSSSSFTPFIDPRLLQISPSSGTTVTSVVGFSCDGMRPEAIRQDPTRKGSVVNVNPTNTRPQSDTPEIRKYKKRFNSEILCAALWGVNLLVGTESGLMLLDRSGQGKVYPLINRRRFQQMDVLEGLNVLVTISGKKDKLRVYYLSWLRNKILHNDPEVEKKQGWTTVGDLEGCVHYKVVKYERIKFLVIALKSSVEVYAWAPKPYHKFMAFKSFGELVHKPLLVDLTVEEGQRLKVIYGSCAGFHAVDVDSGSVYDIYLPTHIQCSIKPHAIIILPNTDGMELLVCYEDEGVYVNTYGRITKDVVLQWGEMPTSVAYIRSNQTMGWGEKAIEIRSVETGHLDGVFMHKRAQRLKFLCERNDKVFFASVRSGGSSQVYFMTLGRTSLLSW
Chain of MAPK7 (Q13164 whole entry): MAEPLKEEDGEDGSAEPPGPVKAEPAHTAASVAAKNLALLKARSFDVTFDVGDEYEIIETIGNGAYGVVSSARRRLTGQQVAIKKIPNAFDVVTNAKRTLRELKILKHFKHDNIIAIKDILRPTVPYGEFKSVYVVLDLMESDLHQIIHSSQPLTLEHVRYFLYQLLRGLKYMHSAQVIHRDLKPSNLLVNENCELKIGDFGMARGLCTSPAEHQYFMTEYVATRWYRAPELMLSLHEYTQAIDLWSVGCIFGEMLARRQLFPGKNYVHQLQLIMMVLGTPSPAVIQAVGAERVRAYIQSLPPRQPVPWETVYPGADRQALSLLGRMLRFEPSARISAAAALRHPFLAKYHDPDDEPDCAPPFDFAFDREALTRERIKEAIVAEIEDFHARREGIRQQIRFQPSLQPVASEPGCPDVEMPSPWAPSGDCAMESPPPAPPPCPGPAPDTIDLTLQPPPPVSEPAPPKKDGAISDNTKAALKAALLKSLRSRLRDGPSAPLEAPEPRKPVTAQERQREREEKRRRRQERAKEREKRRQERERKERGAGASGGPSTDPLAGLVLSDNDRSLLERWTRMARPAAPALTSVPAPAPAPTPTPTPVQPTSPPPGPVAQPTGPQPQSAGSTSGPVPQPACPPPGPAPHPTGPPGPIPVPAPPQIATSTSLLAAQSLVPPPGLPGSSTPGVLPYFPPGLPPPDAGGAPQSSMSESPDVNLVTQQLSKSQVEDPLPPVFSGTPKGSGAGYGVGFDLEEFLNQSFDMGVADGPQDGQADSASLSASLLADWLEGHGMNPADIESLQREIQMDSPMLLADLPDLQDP
Chain of JAK2 (O60674 whole entry): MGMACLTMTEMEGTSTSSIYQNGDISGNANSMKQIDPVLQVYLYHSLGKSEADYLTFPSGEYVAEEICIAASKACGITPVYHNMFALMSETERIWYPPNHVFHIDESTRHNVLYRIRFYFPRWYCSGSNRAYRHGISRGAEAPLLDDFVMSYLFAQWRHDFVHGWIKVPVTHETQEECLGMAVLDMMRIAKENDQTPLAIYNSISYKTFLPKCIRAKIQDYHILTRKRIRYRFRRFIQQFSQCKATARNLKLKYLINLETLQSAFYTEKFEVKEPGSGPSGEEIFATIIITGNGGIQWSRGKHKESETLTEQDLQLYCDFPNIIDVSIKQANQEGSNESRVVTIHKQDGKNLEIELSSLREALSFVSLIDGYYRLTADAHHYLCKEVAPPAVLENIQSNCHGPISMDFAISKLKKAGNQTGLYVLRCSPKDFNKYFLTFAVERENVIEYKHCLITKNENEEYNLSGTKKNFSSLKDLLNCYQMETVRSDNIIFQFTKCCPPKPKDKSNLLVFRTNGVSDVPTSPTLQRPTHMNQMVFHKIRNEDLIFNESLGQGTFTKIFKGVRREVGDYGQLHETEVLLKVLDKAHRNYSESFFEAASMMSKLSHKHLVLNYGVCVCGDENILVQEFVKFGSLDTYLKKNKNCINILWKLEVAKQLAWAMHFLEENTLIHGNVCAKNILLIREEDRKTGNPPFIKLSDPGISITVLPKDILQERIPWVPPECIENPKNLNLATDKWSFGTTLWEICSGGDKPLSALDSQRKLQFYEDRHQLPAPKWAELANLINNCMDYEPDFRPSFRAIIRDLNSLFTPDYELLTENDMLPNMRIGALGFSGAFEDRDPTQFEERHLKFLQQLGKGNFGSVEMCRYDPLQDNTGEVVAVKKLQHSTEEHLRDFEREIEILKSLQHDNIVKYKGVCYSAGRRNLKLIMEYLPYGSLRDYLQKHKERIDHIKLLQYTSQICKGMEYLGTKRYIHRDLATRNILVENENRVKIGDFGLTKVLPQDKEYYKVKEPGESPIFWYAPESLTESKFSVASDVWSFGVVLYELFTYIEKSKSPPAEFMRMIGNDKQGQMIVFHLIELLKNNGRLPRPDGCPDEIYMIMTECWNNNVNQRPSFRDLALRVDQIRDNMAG
Chain of IRAK1 (P51617 whole entry): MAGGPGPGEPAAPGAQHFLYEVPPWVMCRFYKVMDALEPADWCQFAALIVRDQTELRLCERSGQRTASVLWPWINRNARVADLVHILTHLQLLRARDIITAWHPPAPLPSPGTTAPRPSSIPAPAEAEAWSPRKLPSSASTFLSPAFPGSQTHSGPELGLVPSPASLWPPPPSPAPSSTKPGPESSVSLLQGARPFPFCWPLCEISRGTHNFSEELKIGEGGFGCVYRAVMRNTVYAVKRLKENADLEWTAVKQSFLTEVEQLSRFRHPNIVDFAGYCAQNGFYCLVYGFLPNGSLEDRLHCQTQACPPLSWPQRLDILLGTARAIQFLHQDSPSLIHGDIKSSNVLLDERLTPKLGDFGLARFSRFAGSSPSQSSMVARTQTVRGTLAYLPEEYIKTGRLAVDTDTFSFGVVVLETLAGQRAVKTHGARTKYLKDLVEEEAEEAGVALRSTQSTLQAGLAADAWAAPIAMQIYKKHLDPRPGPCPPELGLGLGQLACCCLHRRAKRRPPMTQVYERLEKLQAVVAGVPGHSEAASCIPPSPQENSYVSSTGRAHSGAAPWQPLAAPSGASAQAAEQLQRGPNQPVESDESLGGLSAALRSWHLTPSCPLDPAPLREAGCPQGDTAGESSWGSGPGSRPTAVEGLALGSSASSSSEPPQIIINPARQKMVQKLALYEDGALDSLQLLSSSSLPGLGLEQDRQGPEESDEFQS
Chain of NEK6 (Q9HC98 whole entry): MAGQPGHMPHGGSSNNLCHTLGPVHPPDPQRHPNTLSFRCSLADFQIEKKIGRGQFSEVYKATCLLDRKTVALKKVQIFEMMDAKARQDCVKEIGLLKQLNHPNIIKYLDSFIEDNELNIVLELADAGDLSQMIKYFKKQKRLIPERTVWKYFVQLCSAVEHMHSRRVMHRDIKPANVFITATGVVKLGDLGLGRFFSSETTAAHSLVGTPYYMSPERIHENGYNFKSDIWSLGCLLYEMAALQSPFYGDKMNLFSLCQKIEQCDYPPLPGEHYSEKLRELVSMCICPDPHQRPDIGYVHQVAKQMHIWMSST
Chain of STK3 (Q13188 whole entry): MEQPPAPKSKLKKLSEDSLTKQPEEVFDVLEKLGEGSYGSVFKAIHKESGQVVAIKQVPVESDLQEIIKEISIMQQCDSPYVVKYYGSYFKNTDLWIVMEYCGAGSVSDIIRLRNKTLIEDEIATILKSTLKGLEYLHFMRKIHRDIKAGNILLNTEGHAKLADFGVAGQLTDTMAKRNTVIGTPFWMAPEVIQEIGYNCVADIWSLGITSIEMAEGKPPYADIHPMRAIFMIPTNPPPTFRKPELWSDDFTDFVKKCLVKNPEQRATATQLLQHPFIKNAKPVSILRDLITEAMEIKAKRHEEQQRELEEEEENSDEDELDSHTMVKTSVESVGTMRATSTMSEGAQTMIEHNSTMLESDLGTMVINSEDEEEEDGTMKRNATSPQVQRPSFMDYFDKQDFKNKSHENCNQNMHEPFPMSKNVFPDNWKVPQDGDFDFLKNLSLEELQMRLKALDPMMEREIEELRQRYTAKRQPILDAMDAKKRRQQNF

CN1CCN(c2ccc(Nc3ncc(C#N)c(Nc4ccccc4C(N)=O)n3)cc2)CC1.Cl [TCMDC-134116]
IC50 (BMPR2): 4.9 µM and 6.7 µM | IC50 (CHEK1): 0.22 µM | IC50 (IRAK1): 0.16 µM and 0.14 µM | IC50 (JAK2): 0.51 µM and 0.33 µM | IC50 (MAPK7): 0.28 µM and 0.38 µM | IC50 (NEK6): 0.26 µM

Cl.NCC1(c2nc(-c3ccc(Cl)c(O)c3)c(-c3ccncc3)[nH]2)CCCCC1 [TCMDC-141154]
IC50 (CHEK1): > 20 µM | IC50 (IRAK1): > 20 µM | IC50 (JAK2): > 20 µM | IC50 (MAP4K4): 1.5 µM and 0.95 µM | IC50 (MAPK7): 1.1 µM and 1.9 µM | IC50 (NEK6): > 20 µM | IC50 (STK3): > 20 µM | IC50 (TAOK3): 1.8 µM and 0.91 µM

CN(C)CC(O)COc1ccc(Nc2ncc([N+](=O)[O-])c(Nc3ccccc3O)n2)cc1.O=C(O)C(F)(F)F (stereo not drawn) [TCMDC-141399]
IC50 (BMPR2): > 20 µM | IC50 (MAP4K4): 1.8 µM and 1.2 µM | IC50 (STK3): > 20 µM | IC50 (TAOK3): > 20 µM
